Measured values: the NIST ThermoML archive (doi:10.1016/j.tca.2004.11.034)

Experiments:
[1] = xn = mol fraction of the nth substance listed; conditions: 101.33 kPa, Liquid; for speed of sound: Anton Paar DSA 48; for mass density: Vibrating tube method
[2] = excess molar enthalpy (molar enthalpy of mixing); xn = mol fraction of the nth substance listed; conditions: 298.15 K, 101.33 kPa, Liquid, Flow calorimetry
[3] = 101.33 kPa, Liquid; for speed of sound: Anton Paar DSA 48; for mass density: Vibrating tube method

CC1CCCO1 (centres undefined) [2-methyltetrahydrofuran] + CCCCCl
[1]
Conditions | mass density, 298.15 K [kg/m3] | mass density, 313.15 K [kg/m3] | speed of sound, 298.15 K [m/s] | speed of sound, 313.15 K [m/s]
x1 = 0.0507 | – | 862.5 | – | 1061
x1 = 0.0535 | 879.23 | – | 1123.2 | –
x1 = 0.0972 | 878.04 | – | 1126.8 | –
x1 = 0.1022 | – | 861.16 | – | 1065
x1 = 0.1958 | 875.19 | – | 1134.9 | –
x1 = 0.2014 | – | 858.46 | – | 1072.6
x1 = 0.2975 | 872.17 | – | 1143.3 | –
x1 = 0.3019 | – | 855.6 | – | 1080.3
x1 = 0.4006 | 869.04 | – | 1151.9 | –
x1 = 0.4047 | – | 852.6 | – | 1088.5
x1 = 0.5017 | – | 849.72 | – | 1096.2
x1 = 0.5031 | 865.88 | – | 1160.5 | –
x1 = 0.6017 | 862.77 | – | 1168.8 | –
x1 = 0.6026 | – | 846.65 | – | 1104.3
x1 = 0.6986 | 859.63 | – | 1177 | –
x1 = 0.7017 | – | 843.55 | – | 1112.3
x1 = 0.7994 | – | 840.43 | – | 1120.2
x1 = 0.8009 | 856.27 | – | 1185.6 | –
x1 = 0.9005 | 852.87 | – | 1194.1 | –
x1 = 0.9009 | – | 837.13 | – | 1128.3
x1 = 0.9487 | – | 835.54 | – | 1132.2
x1 = 0.9489 | 851.15 | – | 1198.2 | –

[2]
Conditions | excess molar enthalpy [kcal/mol]
x1 = 0.057 | -0.00669
x1 = 0.104 | -0.0139
x1 = 0.201 | -0.0277
x1 = 0.298 | -0.038
x1 = 0.398 | -0.0466
x1 = 0.497 | -0.0502
x1 = 0.597 | -0.0495
x1 = 0.696 | -0.0449
x1 = 0.799 | -0.0351
x1 = 0.901 | -0.0203
x1 = 0.954 | -0.0103

CCC(C)Cl (centres undefined) [2-chlorobutane] + CC1CCCO1
[1]
Conditions | mass density, 298.15 K [kg/m3] | mass density, 313.15 K [kg/m3] | speed of sound, 298.15 K [m/s] | speed of sound, 313.15 K [m/s]
x2 = 0.049 | 866.71 | – | 1073.2 | –
x2 = 0.0565 | – | 849.52 | – | 1013.7
x2 = 0.1006 | 866.01 | – | 1080.1 | –
x2 = 0.101 | – | 848.97 | – | 1019.3
x2 = 0.201 | – | 847.69 | – | 1031.9
x2 = 0.2041 | 864.52 | – | 1093.8 | –
x2 = 0.3034 | 862.99 | – | 1107.1 | –
x2 = 0.3045 | – | 846.28 | – | 1045.1
x2 = 0.4039 | – | 844.81 | – | 1057.9
x2 = 0.4055 | 861.31 | – | 1120.8 | –
x2 = 0.5026 | 859.61 | – | 1134 | –
x2 = 0.5074 | – | 843.19 | – | 1071.3
x2 = 0.6005 | 857.81 | – | 1147.3 | –
x2 = 0.6044 | – | 841.58 | – | 1083.9
x2 = 0.6989 | 855.91 | – | 1160.9 | –
x2 = 0.7042 | – | 839.79 | – | 1097
x2 = 0.8022 | 853.81 | – | 1175.2 | –
x2 = 0.8034 | – | 837.9 | – | 1110
x2 = 0.8988 | – | 835.97 | – | 1122.6
x2 = 0.8991 | 851.69 | – | 1188.7 | –
x2 = 0.9456 | – | 835.03 | – | 1128.8
x2 = 0.9472 | 850.55 | – | 1195.3 | –

[2]
Conditions | excess molar enthalpy [kcal/mol]
x2 = 0.057 | -0.00454
x2 = 0.104 | -0.01
x2 = 0.201 | -0.0198
x2 = 0.298 | -0.0277
x2 = 0.398 | -0.033
x2 = 0.497 | -0.0356
x2 = 0.597 | -0.0359
x2 = 0.696 | -0.0323
x2 = 0.799 | -0.0251
x2 = 0.901 | -0.0141
x2 = 0.954 | -0.00717

CCC(C)Cl (centres undefined) [2-chlorobutane]
[3]
Conditions | mass density [kg/m3] | speed of sound [m/s]
298.15 K | 867.37 | 1066.8
313.15 K | 850.16 | –
333.15 K | – | 1006.9
